Experimental data: patent publication US20230390247A1, “BIPHENYL PYRROLIDINE AND BIPHENYL DIHYDROIMIDAZOLE DERIVATIVES FOR INHIBITING ACTIVITY OF 5-HT7 SEROTONIN RECEPTOR, AND PHARMACEUTICAL COMPOSITION COMPRISING SAME AS ACTIVE INGREDIENT” (priority 2020, published 2023)
pIC50: −log10 of the molar value.

Assays:
Format in all cases: cell-based
5-HT7R [1] = biological target: T1, 5-HT7R (Homo sapiens (Human), UniProt P34969); assay: Schild plot for Tango assay; details: compounds at 5 μM, 10 μM and 30 μM with serotonin, read-out: pA2 (converted)
T1 sequence (P34969 whole entry): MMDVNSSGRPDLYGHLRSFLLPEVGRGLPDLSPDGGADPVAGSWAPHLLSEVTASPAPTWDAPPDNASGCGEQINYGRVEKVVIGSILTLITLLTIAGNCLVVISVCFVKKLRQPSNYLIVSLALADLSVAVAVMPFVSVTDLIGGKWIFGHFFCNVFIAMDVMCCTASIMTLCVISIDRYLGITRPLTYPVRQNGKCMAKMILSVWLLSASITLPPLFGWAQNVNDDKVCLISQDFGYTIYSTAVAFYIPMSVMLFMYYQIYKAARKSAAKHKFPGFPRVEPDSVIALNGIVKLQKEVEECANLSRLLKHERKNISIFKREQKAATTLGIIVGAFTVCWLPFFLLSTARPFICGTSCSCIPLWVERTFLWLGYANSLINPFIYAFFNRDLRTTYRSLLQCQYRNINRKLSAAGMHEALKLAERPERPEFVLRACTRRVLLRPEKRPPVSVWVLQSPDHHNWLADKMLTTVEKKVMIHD
Procedure: Schild plots were constructed for the Tango assay in order to investigate the effect of the compounds on the activity of the β-arrestin signaling pathway. After culturing cells and replacing the culture medium as described in b) of Test Example 1, the cells were transfected and prepared on a plate. 6 hours later, the cells were treated with 10 μL of the solution of serotonin or the compounds at final concentrations of 5 μM, 10 μM and 30 μM. […] In addition, the pA2 value was obtained using the Excel software. The Schild plots and pA2 values of compound 23 and compound 30 according to the present disclosure are summarized in FIGS. 1A-1B, FIG. 2 and Table 8.

5-HT7R [2] = biological target: T1, 5-HT7R; assay: Tango assay (β-arrestin signaling system); details: HTLA cells transfected with 5-HT7R-TCS-tTA construct
Procedure: Tango assay was conducted using HTLA cells in order to investigate the activity of the β-arrestin signaling system. Prior to transfection, the culture medium was replaced from DMEM containing 10% FBS, 100 U/mL penicillin, 100 μg/mL streptomycin, 2 μg/mL puromycin and 100 μg/mL hygromycin B to DMEM containing 10% dialyzed FBS, 100 U/mL penicillin and 100 μg/mL streptomycin. 4 hours later, transfection was conducted using 20 μg of a 5-HT7R-TCS-tTA construct (5-HT7R Tango DNA). The transfected cells were prepared on a white, flat, clear-bottom, 384-well plate (Greiner) (15,000 cells/well, 20 μL/well) using DMEM containing 10% dialyzed FBS, 100 U/mL penicillin and 100 μg/mL streptomycin. 6 hours later, after removing the culture medium, the cells were treated with 10 μL of the compound solution. After culturing for 22 hours and removing the culture medium, the cells were treated with 20 μL of a BrightGlo reagent (Promega) diluted in a 1×HBSS, […], pH 7.4 buffer. After measuring luminescence using a Tecan microplate reader (Spark), IC50 value was obtained using the Prism 8.0 program (GraphPad Software).

5-HT7R [3] = biological target: T1, 5-HT7R; assay: cAMP assay (luminescence-based, GloSensor); details: HEK293 cells transfected with human 5-HT7R and GloSensor-22F
Procedure: For luminescence-based cAMP assay, HEK293 cells were cultured on a 150-mm dish. Prior to transfection, the culture medium was replaced from DMEM containing 10% FBS, 100 U/mL penicillin and 100 μg/mL streptomycin to DMEM containing 10% dialyzed FBS, 100 U/mL penicillin and 100 μg/mL streptomycin. 4 hours later, transfection was conducted using 10 μg of a human 5-HT7R plasmid and 10 μg of a GloSensor-22F plasmid (Promega). The transfected cells were prepared on a white, flat, clear-bottom, 384-well plate (Greiner) (15,000 cells/well, 20 μL/well). 6 hours later, after removing the culture medium, the cells were treated with 20 μL of a 3% Glosensor cAMP reagent containing luciferin in a 1×HBSS, […], pH 7.4 buffer. In addition, the compound of each of the examples was prepared at different concentrations in an assay buffer containing 0.1% bovine serum albumin. 30 minutes later, 10 μL of the compound solution was treated to the cells. After measuring luminescence using a Tecan microplate reader (Spark), IC50 value was obtained using the Prism 8.0 program (GraphPad Software).

Row | Compound | Kb (5-HT7R [1]) | inhibition at 10 µM (5-HT7R [2]) | pIC50 (5-HT7R [2]) | inhibition at 10 µM (5-HT7R [3]) | pIC50 (5-HT7R [3])
1 | c1ccc(-c2cccc(C3=NCCN3)c2)cc1 [Compound 23, 2-([1,1′-biphenyl]-3-yl)-4,5-dihydro-1H-imidazole] | 5.75 µM | 44.2% | 4.32 | 83.3% | 5.29
2 | COc1ccccc1-c1cccc(C2=NCCN2)c1 [Compound 30, 2-(2′-methoxy-[1,1′-biphenyl]-3-yl)-4,5-dihydro-1H-imidazole] | 1.26 µM | 40.6% | 4.40 | 94.1% | 5.59
3 | COc1ccccc1-c1cc(C2=NCCN2)ccc1Cl [Compound 41, 2-(6-chloro-2′-methoxy-[1,1′-biphenyl]-3-yl)-4,5-dihydro-1H-imidazole] |  | 27.7% |  | 44.3% | 
4 | Cc1cccc(-c2cc(C3=NCCN3)ccc2Cl)c1 [Compound 39, 2-(6-chloro-3′-methyl-[1,1′-biphenyl]-3-yl)-4,5-dihydro-1H-imidazole] |  | 27% |  | 48.1% | 
5 | Cc1ccc(-c2cc(CN3CCCC3)ccc2Cl)cc1 [Compound 18, 1-((6-chloro-4′methyl-[1,1′-biphenyl]-3-yl)methyl)pyrrolidine] |  | 21.5% |  | 73.4% | 5.09
6 | COc1ccccc1-c1cc(CN2CCCC2)ccc1Cl [Compound 19, 1-((6-chloro-2′-methoxy-[1,1′-biphenyl]-3-yl)methyl)pyrrolidine] |  | 19.7% |  | 51.8% | 
7 | Clc1ccc(CN2CCCC2)cc1-c1ccccc1 [Compound 12, 1-((6-chloro-[1,1′-biphenyl]-3-yl)methyl)pyrrolidine] |  | 26.1% |  | 80.8% | 5.31
8 | Clc1ccc(C2=NCCN2)cc1-c1ccccc1 [Compound 34, 2-(6-chloro-[1,1′-biphenyl]-3-yl)-4,5-dihydro-1H-imidazole] |  | 31.6% |  | 48.4% | 
9 | Cc1ccc(-c2cc(C3=NCCN3)ccc2Cl)cc1 [Compound 40, 2-(6-chloro-4′-methyl-[1,1′-biphenyl]-3-yl)-4,5-dihydro-1H-imidazole] |  | 31.3% |  | 48.9% | 
10 | Clc1ccc(-c2cc(C3=NCCN3)ccc2Cl)cc1 [Compound 37, 2-(4′,6-dichloro-[1,1′-biphenyl]-3-yl)-4,5-dihydro-1H-imidazole] |  | 39.6% |  | 43.3% | 
11 | Clc1ccccc1-c1cc(CN2CCCC2)ccc1Cl [Compound 13, 1-((2′,6-dichloro-[1,1′-biphenyl]-3-yl)methyl)pyrrolidine] |  | 50.5% |  | 90.7% | 5.49
